These results are taken from US11178870B2 (priority 2017, dated 2021).

Common to all, as to assay type: in vivo
The subject of assay [1] is Blumeria graminis f. sp. hordei. In words: Test Example D: Powdery mildew on barley. The note with it: Powdery mildew on barley, read-out: Test D control value.
For the next assay, the system named is Phytophthora infestans. In words: whole plant or invertebrate. Particulars: in Solanum lycopersicum, read-out: Test F control value.
The test system of the next assay is Puccinia recondita. The assay can be described thus: Test Example E: Brown rust on wheat. Particulars: Brown rust on wheat, read-out: Test E control value.
In another assay the test system is Alternaia brassicicola. The assay can be described thus: Test Example C: Alternaria sooty spot on cabbage. The note with it: Brassica oleracea; Alternaria sooty spot on cabbage; read-out: Test C control value.
The next assay deals with Magnaporthe grisea. The assay can be described thus: whole plant or invertebrate. The note with it: Pyricularia oryzae, in Oryza sativa, read-out: Test A control value.
A further assay has as its system Plasmopara viticola. In words: Test Example G: Downy mildew on vine. The note with it: Downy mildew on vine, 250 ppm sprayed, 2.5 ml/pot, 7 to 10 days after inoculation, read-out: Test G control value.
A further assay concerns Botrytis cinerea. In words: Test Example B: Gray mold on tomato. The note with it: Gray mold on tomato, read-out: Test B control value.

Take `CCN1C(=O)CCC(c2cccs2)=C1c1c(F)cccc1F` [compound 2, 6-(2,6-difluorophenyl)-1-ethyl-5-(thiophen-2-yl)-3,4-dihydropyridin-2(1H)-one]: the pest or weed control at 250 µg/mL in assay [1] is over 50%; in the assay with Phytophthora infestans, under 50%; in the assay with Puccinia recondita, over 50%; in the assay on Alternaia brassicicola, under 50%; in the assay with Magnaporthe grisea, over 50%; in the assay with Botrytis cinerea, under 50%. Moreover, in the assay with Plasmopara viticola, the pest or weed control at 250 ppm was over 50%.

Regarding `CCn1c(-c2c(F)cccc2F)c(-c2cccs2)ccc1=O` [compound 5, 6-(2,6-difluorophenyl)-1-ethyl-5-(thiophen-2-yl)pyridin-2(1H)-one], the pest or weed control at 250 µg/mL (in assay [1]; in the assay on Phytophthora infestans; in the assay with Puccinia recondita; in the assay on Alternaia brassicicola; in the assay with Magnaporthe grisea; in the assay on Botrytis cinerea) was over 50% in each case. Further, the pest or weed control at 250 ppm in the assay on Plasmopara viticola was over 50%.

Regarding `CCn1c(-c2c(F)cccc2F)c(-c2ccc(Cl)s2)ccc1=O` [compound 6, 5-(5-chlorothiophen-2-yl)-6-(2,6-difluorophenyl)-1-ethylpyridin-2(1H)-one], the pest or weed control at 250 µg/mL was under 50% in assay [1]; under 50% in the assay with Phytophthora infestans; over 50% in the assay with Puccinia recondita; over 50% with Alternaia brassicicola; over 50% in the assay on Magnaporthe grisea; over 50% in the assay with Botrytis cinerea. Further, the pest or weed control at 250 ppm with Plasmopara viticola was under 50%.

Consider `CCn1c(-c2c(F)cccc2F)c(-c2ccc(Cl)s2)cc(Cl)c1=O` [compound 7, 3-chloro-5-(5-chlorothiophen-2-yl)-6-(2,6-difluorophenyl)-1-ethylpyridin-2(1H)-one], for which the pest or weed control at 250 µg/mL in assay [1] was under 50%; with Phytophthora infestans, under 50%; with Puccinia recondita, over 50%; in the assay on Alternaia brassicicola, over 50%; with Magnaporthe grisea, over 50%; in the assay on Botrytis cinerea, over 50%. Moreover, the pest or weed control at 250 ppm with Plasmopara viticola was under 50%.

As for `CCn1c(-c2c(F)cc(F)cc2F)c(C2OCCCO2)cc(Cl)c1=O` [compound 8, 3-chloro-5-(1,3-dioxan-2-yl)-1-ethyl-6-(2,4,6-trifluorophenyl)-pyridin-2(1H)-one], the pest or weed control at 250 µg/mL in assay [1] is under 50%; in the assay with Phytophthora infestans, under 50%; in the assay on Puccinia recondita, under 50%; in the assay on Alternaia brassicicola, over 50%; with Magnaporthe grisea it was over 50%; with Botrytis cinerea, over 50%. The pest or weed control at 250 ppm in the assay on Plasmopara viticola was over 50%.

Consider `CCn1c(-c2c(F)cccc2F)c(-c2cccnc2Cl)ccc1=O` [compound 17], for which the pest or weed control at 250 µg/mL (in assay [1]; in the assay with Puccinia recondita; in the assay on Botrytis cinerea) was over 50% each time.

For `CCn1c(-c2c(F)cccc2F)c(-c2cccnc2Cl)cc(Cl)c1=O` [compound 18], the pest or weed control at 250 µg/mL is over 50% in assay [1]; under 50% with Phytophthora infestans; over 50% in the assay with Puccinia recondita; over 50% with Alternaia brassicicola; over 50% with Magnaporthe grisea; over 50% in the assay on Botrytis cinerea. Further, the pest or weed control at 250 ppm with Plasmopara viticola is under 50%.

Turning to `CCn1c(-c2c(F)cc(F)cc2F)c(-c2ccnn2C)cc(Cl)c1=O` [compound 20, 3-chloro-1-ethyl-5-(1-methyl-1H-pyrazol-5-yl)-6-(2,4,6-trifluorophenyl)pyridin-2(1H)-one], the pest or weed control at 250 µg/mL was over 50% in assay [1]; under 50% with Phytophthora infestans; over 50% with Puccinia recondita; over 50% with Alternaia brassicicola; over 50% with Magnaporthe grisea; over 50% in the assay with Botrytis cinerea. In the assay with Plasmopara viticola, the pest or weed control at 250 ppm was under 50%.

`CCn1c(-c2c(F)cc(F)cc2F)c(-c2c(Br)cnn2C)cc(Cl)c1=O` [compound 21, 5-(4-bromo-1-methyl-1H-pyrazol-5-yl)-3-chloro-1-ethyl-6-(2,4,6-trifluorophenyl)pyridin-2(1H)-one]: the pest or weed control at 250 µg/mL in assay [1] is over 50%; in the assay with Phytophthora infestans it was under 50%; with Puccinia recondita, over 50%; with Alternaia brassicicola it was over 50%; with Magnaporthe grisea, over 50%; with Botrytis cinerea it was over 50%. The pest or weed control at 250 ppm with Plasmopara viticola is over 50%.

For the molecule `CCn1c(-c2c(F)cc(OC)cc2F)c(-c2c(Br)cnn2C)cc(Cl)c1=O` [compound 23, 5-(4-bromo-1-methyl-1H-pyrazol-5-yl)-3-chloro-6-(2,6-difluoro-4-methoxyphenyl)-1-ethylpyridin-2(1H)-one], the pest or weed control at 250 µg/mL is over 50% in assay [1]; under 50% in the assay with Phytophthora infestans; over 50% with Puccinia recondita; over 50% in the assay on Alternaia brassicicola; over 50% with Magnaporthe grisea; over 50% with Botrytis cinerea. For the same molecule, the pest or weed control at 250 ppm in the assay with Plasmopara viticola was under 50%.

On to `CCn1c(-c2c(F)cc(F)cc2F)c(-c2nn(C)cc2Br)cc(Cl)c1=O` [compound 24, 5-(4-bromo-1-methyl-1H-pyrazol-3-yl)-3-chloro-1-ethyl-6-(2,4,6-trifluorophenyl)pyridin-2(1H)-one], for which the pest or weed control at 250 µg/mL is over 50% in assay [1]; under 50% with Phytophthora infestans; over 50% with Puccinia recondita; over 50% in the assay with Alternaia brassicicola; over 50% with Magnaporthe grisea; over 50% in the assay on Botrytis cinerea. Moreover, in the assay on Plasmopara viticola, the pest or weed control at 250 ppm is over 50%.

On to `CCN1C(=O)CCC(n2cccn2)=C1c1c(F)cc(F)cc1F` [compound 25, 1-ethyl-5-(1H-pyrazol-1-yl)-6-(2,4,6-trifluorophenyl)-3,4-dihydropyridin-2(1H)-one], for which the pest or weed control at 250 µg/mL in assay [1] is over 50%; in the assay with Phytophthora infestans, under 50%; in the assay on Puccinia recondita, under 50%; in the assay with Alternaia brassicicola, over 50%; with Magnaporthe grisea, under 50%; in the assay with Botrytis cinerea, under 50%. The pest or weed control at 250 ppm with Plasmopara viticola is under 50%.

Consider `CCn1c(-c2c(F)cc(F)cc2F)c(-n2cccn2)ccc1=O` [compound 26, 1-ethyl-5-(1H-pyrazol-1-yl)-6-(2,4,6-trifluorophenyl)pyridin-2(1H)-one], for which the pest or weed control at 250 µg/mL in assay [1] was over 50%; with Phytophthora infestans it was under 50%; in the assay with Puccinia recondita, over 50%; with Alternaia brassicicola it was over 50%; in the assay on Magnaporthe grisea it was over 50%; with Botrytis cinerea, over 50%. Also, the pest or weed control at 250 ppm with Plasmopara viticola is under 50%.

For the molecule `CCn1c(-c2c(F)cc(F)cc2F)c(-n2cc(Cl)cn2)ccc1=O` [compound 27, 5-(4-chloro-1H-pyrazol-1-yl)-1-ethyl-6-(2,4,6-trifluorophenyl)-pyridin-2(1H)-one], the pest or weed control at 250 µg/mL in assay [1] is over 50%; in the assay with Phytophthora infestans, under 50%; with Puccinia recondita, over 50%; in the assay with Alternaia brassicicola, over 50%; in the assay with Magnaporthe grisea, under 50%; in the assay on Botrytis cinerea, over 50%. Moreover, the pest or weed control at 250 ppm in the assay on Plasmopara viticola was under 50%.
